# Assay results as given in patent publication US20220226343A1, “3-AMINO-4-[4-[4 (DIMETHYLCARBAMOYL) PHENYL]-1,4-DIAZEPAN-1-YL]THIENO[2,3-B]PYRIDINE-2-CARBOXAMIDE FOR USE IN CANCER THERAPY AND FORMULATIONS COMPRISING THE SAME” (University of South Carolina, priority 2019, published 2022).
# Where two headings read alike, the source gives them in different places.
# Columns and labels:
# [1] = Mouse PK, intravenous 0.5 mg/kg; assay type: in vivo; details: i.v. 0.5 mg/kg, male FVB mice, mixture
# MDA-MB-468 xenografts = assay: MDA-MB-468 TNBC xenografts in NSG female mice; details: 250 ppm medicated diet plus 5 then 8 mg/kg daily gavage, 66 days
# MYC-CaP-CR tumors = MYC-CaP-CR tumors subcutaneous in intact FVB male mice; assay type: in vivo, mouse
# Description: (§1) MYC-CaP-CR cells (Ellis L. et al., 2012. Prostate 72(6):587-591) were selected for castration resistance from genetically engineered MYC-CaP cells that express MYC from an AR-responsive promoter (Watson P A, et al., 2005. Cancer Res 65(24):11565-11571). Castration resistance in these cells is associated with the overexpression of full-length AR rather than an AR variant, such as AR-V7 in 22rv1 (Olson B M, et al., 2017. Cancer immunology research 5(12):1074-1085).
# [2] = Oral PK of a mixture of 15w and 15u, 30 mg/kg, female CD1 mice; details: oral 30 mg/kg each
# CDK8/19 = assay: NFκB reporter assay in parental 293 reporter cells; assay type: cell-based
# Description: We have used a cell-based assay to measure the inhibition of CDK8/19 activity by thienopyridine derivatives. This assay, based on the role of CDK8/19 in NFκB-driven transcription (Chen, 2017), measures the effects of CDK8/19 on the expression of firefly luciferase reporter from a NFκB-dependent promoter in 293 cells. Lentiviral vector pHAGE-NFKB-TA-LUC-UBC-dTomato-W (Addgene #49335) was introduced into 293 cells and a clonal cell line showing the strongest induction of luciferase expression upon TNFα treatment was established and used as the reporter cell line. As a control for CDK8/19 dependence of NFκB inhibition, we have also introduced the same reporter construct into 293 cells with CRISPR/CAS9 knockout of both CDK8 and CDK19.
# FIG. 2C and Table 1 compares the IC50 values for different thienopyridines measured in the NFκB reporter assay in parental 293-derived reporter cell line to the cell-based activity values measured for the same compounds by Saito (2013) based on their effect on alkaline phosphatase (ALPase), an indicator of differentiation to osteoblasts in the mouse bone marrow stromal cell line ST2. The latter effects are expressed as EC200, a concentration that enhances ALPase activity to 200% of control.
# MYC-CAP-CR cells = assay: Short-term cell proliferation assay, MYC-CAP-CR; assay type: cell-based, murine; details: androgen-containing media
# Description: as §1
# MV4-11 cells = assay: cells; details: Homo sapiens, MV4-11, read-out: Inhibition Potency MV4-11-Luc Assay
# [3] = Oral PK, male Cynomolgus monkeys 25 mg/kg; details: Liquid formulation 2, oral 25 mg/kg
# [4] = Maximum solubility of 15u in individual excipients; assay type: physicochemical; set-up: key to XRPD Pattern (API = A): API = A
# Experimental: The binary mixtures were incubated on a shaker with temperature control either at 25° C. or 40° C. for at least 48 hours. The mixtures were filtered with 0.45 μm filters to separate the solid and liquid portions. PLC was performed on the on the liquid portion to determine the maximum solubility. XRPD was performed on the collected solid to check polymorph change.
# [5] = Solubility of 15u in aqueous solution and vehicles
structure (smiles),measurement,setting,value
"CN(C)C(=O)c1ccc(N2CCCN(c3ccnc4sc(C(N)=O)c(N)c34)CC2)cc1 [Compound 15u, 3-amino-4-(4-(4-(dimethylcarbamoyl)phenyl)-1,4-diazepan-1-yl)thieno[2,3-b]pyridine-2-carboxamide]",Elimination rate,[1],1.98 h⁻¹
same,MDA-MB-468 tumor volume,MDA-MB-468 xenografts,significant reduction in tumor volume
same,MDA-MB-468 tumor weights at the end of the study,MDA-MB-468 xenografts,significantly lower
same,mouse body weights,MDA-MB-468 xenografts,no detrimental effects
same,MYC-CaP-CR tumor volume and weight,MYC-CaP-CR tumors,modest effect
same,average serum concentration at the latest timepoint (8 hrs) as % of Cmax,[2],64.4 % of Cmax
same,IC50,"CDK8/19; NFκB Activity Assay as described in Example 1, read-out: Inhibition Potency HEK293-NFkB-Luc Assay",10.3 nM
same,IC50,"CDK8/19; parental 293-derived reporter cell line, read-out: NFκB activity Assay IC50",10 nM
same,MYC-CAP-CR cell growth,MYC-CAP-CR cells,little effect
same,IC50,MV4-11 cells,30 nM
same,adverse effects,[3],no adverse effects were observed
same,Maximum Solubility,[4]; Capryol 90,2.9 mg/g
same,Maximum Solubility,[4]; Crodamol GMCC SS,5.5 mg/g
same,Maximum Solubility,[4]; Gelucire 44/14,3.4 mg/g
same,Maximum Solubility,[4]; Kolliphor EL,1.3 mg/g
same,Maximum Solubility,[4]; Labrafac PG,0.0 mg/g
same,Maximum Solubility,[4]; Labrafil M2125CS,0.4 mg/g
same,Maximum Solubility,[4]; Labrasol,5.4 mg/g
same,Maximum Solubility,[4]; Lecithin,1.9 mg/g
same,Maximum Solubility,[4]; Maisine CC,2.4 mg/g
same,Maximum Solubility,[4]; Miglyol 812N,0.0 mg/g
same,Maximum Solubility,[4]; Oleic Acid,0.8 mg/g
same,Maximum Solubility,[4]; Olive Oil,0.0 mg/g
same,Maximum Solubility,[4]; PEG 300,19.8 mg/g
same,Maximum Solubility,[4]; PEG 400,11.8 mg/g
same,Maximum Solubility,[4]; PEG 600,18.3 mg/g
same,Maximum Solubility,[4]; Peceol,2.5 mg/g
same,Maximum Solubility,[4]; Sesame Oil,0.0 mg/g
same,Maximum Solubility,[4]; Span 20,8.0 mg/g
same,Maximum Solubility,[4]; Span 80,1.4 mg/g
same,Maximum Solubility,[4]; Transcutol HP,3.4 mg/g
same,Maximum Solubility,[4]; Tween 80,1.9 mg/g
same,Maximum Solubility,[4]; Vitamin E TPGS,14.6 mg/g
same,XRPD Pattern (API = A),[4]; solid collected from Capryol 90,A
same,XRPD Pattern (API = A),[4]; solid collected from Crodamol GMCC SS,A
same,XRPD Pattern (API = A),[4]; solid collected from Kolliphor EL,A
same,XRPD Pattern (API = A),[4]; solid collected from Labrafac PG,A
same,XRPD Pattern (API = A),[4]; solid collected from Labrafil M2125CS,A
same,XRPD Pattern (API = A),[4]; solid collected from Labrasol,A
same,XRPD Pattern (API = A),[4]; solid collected from Lecithin,A
same,XRPD Pattern (API = A),[4]; solid collected from Maisine CC,A
same,XRPD Pattern (API = A),[4]; solid collected from Miglyol 812N,A
same,XRPD Pattern (API = A),[4]; solid collected from Oleic Acid,A
same,XRPD Pattern (API = A),[4]; solid collected from Olive Oil,A
same,XRPD Pattern (API = A),[4]; solid collected from PEG 300,A
same,XRPD Pattern (API = A),[4]; solid collected from PEG 400,A
same,XRPD Pattern (API = A),[4]; solid collected from PEG 600,A
same,XRPD Pattern (API = A),[4]; solid collected from Peceol,A
same,XRPD Pattern (API = A),[4]; solid collected from Sesame Oil,A
same,XRPD Pattern (API = A),[4]; solid collected from Span 20,A
same,XRPD Pattern (API = A),[4]; solid collected from Span 80,A
same,XRPD Pattern (API = A),[4]; solid collected from Tween 80,A
same,amount of the compound in the liquid phase,"[5]; 5% DMSO, 20% HPBCD",0.2 mg/mL
same,solubility,"[5]; Liquid formulation 1, pH 2.1, aqueous with cosolvent or surfactant or cyclodextrin",~5000 µg/mL
same,solubility,"[5]; Liquid formulation 2, organic solvent or mixture",≤ 20000 µg/mL
same,solubility,"[5]; aqueous solution, pH 7, water",< 10 µg/mL
